Experimental data published in patent publication US9260739B2, “Method for the detection of acid production by cariogenic bacteria” (Ivoclar Vivadent AG, priority 2010, dated 2016).

Tested on: S. sobrinus
Assay: Acid production in vitro by pure culture, colour change of pH indicator
Type: cell-based
Settings: carbon source at 20% in the reaction batch, only S. sobrinus, FIG. 1
Method: Stock cultures of the strain selected for the experiments were stored on CRYOBANK (Mast Diagnostica, CRYO/M) ceramic supports at a temperature of −80° C. For culturing, a ceramic ring was placed into 10 ml of nutrient medium and incubated 14-72 h. This culture was designated passage 0 (P0). Then, 100 μl of culture were inoculated into 10 ml of fresh medium and incubated for 24 h. Cultures of passage 2 were used for the subsequent experiments on acid production. The cultures were diluted in this case until an absorption at 650 nm of about 0.6-1.0 was obtained. The bacterial suspensions were centrifuged at 8000 rpm for 5 minutes. The culture supernatant was removed and the pellet was resuspended in the same volume of water (10 ml, deionized, sterile). The sample was centrifuged again (8000 rpm, 5 minutes) and the supernatant was removed. The pellet was subsequently resuspended in 1 ml of deionized water which corresponds to 1/10 of the original volume. […] Then, the appropriate pH was adjusted and the mixture was filled up to the calculated volume using deionized water. […] After addition of the bacterial suspension to the respective test solution, the colour change of the pH indicator was assessed visually against a reference sample (only test solution) at regular intervals. […]

| SMILES | time within which acid formation can be detected |
| --- | --- |
| OC[C@H]1O[C@@](CO)(O[C@H]2O[C@H](CO)[C@@H](O)[C@H](O)[C@H]2O)[C@@H](O)[C@@H]1O [sucrose] | ≤ 15 min |

Tested on: not listed separately
Assay: pK of pH indicators
Type: physicochemical
Settings: pH indicator
Method: In an alternative embodiment, the pH is determined using a pH indicator which changes colour on acid formation. The pH indicator is preferably added to the cariogenic bacteria together with the carbon source, e.g. by joint immobilization of pH indicator and carbon source on a test strip or by simultaneous addition of pH indicator and carbon source (preferably in the form of a single solution) to a diluted, undiluted or concentrated plaque or saliva sample. […] These comprise, e.g., the indicators bromocresol purple, bromocresol green, m-cresol purple, bromothymol blue, phenol red and chlorophenol red. […] The incubation time that must be applied until a colour change can be detected, depends on the carbon sources and test reagents used and also on their absolute and relative quantitative ratios to one another. In a preferred embodiment, the time period to a colour change of the pH indicator is less than 60 minutes, less than 45 minutes, less than 30 minutes, less than 20 minutes or less than 15 minutes after mixing bacteria, carbon source and indicator.

| SMILES | pK |
| --- | --- |
| Cc1cc(O)ccc1C1(c2ccc(O)cc2C)OS(=O)(=O)c2ccccc21 [m-Cresol purple] | 8.2 |
| Cc1c(C2(c3cc(Br)c(O)c(Br)c3C)OS(=O)(=O)c3ccccc32)cc(Br)c(O)c1Br [Bromocresol green] | 4.7 |
| Cc1cc(C2(c3cc(C)c(O)c(Br)c3)OS(=O)(=O)c3ccccc32)cc(Br)c1O [Bromocresol purple] | 6 |
| O=S1(=O)OC(c2ccc(O)c(Cl)c2)(c2ccc(O)c(Cl)c2)c2ccccc21 [Chlorophenol red] | 5.6 |
| Cc1c(C2(c3cc(C(C)C)c(O)c(Br)c3C)OS(=O)(=O)c3ccccc32)cc(C(C)C)c(O)c1Br [Bromothymol blue] | 7 |
